Data on four molecules can be found in ChEMBL document CHEMBL1201862, “PubChem BioAssay data set” (2004).

SMILES strings stand for the structures. Calls of active or inactive are those of the source.

In experiment [1] the target is T1, CAAX prenyl protease 2 (Saccharomyces cerevisiae S288c, UniProt Q03530).
T1 sequence (Q03530 whole entry): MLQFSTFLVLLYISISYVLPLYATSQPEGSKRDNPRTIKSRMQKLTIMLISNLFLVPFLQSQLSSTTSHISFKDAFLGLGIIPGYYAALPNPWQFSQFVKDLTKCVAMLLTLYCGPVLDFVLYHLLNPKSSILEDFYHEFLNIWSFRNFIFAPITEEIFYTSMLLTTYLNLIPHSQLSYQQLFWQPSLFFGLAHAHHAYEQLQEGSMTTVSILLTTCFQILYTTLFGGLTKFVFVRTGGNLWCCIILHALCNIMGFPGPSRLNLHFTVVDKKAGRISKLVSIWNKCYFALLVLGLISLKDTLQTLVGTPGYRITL
Format: biochemical.

Experiment [2] deals with T1, CAAX prenyl protease 2. Put plainly: yeast Rce1 CaaX protease inhibitors, dose response, biochemical, plate reader, dry powder retest (AID 588851).
The target of experiment [3] is Glycogen synthase kinase-3 beta (Homo sapiens, UniProt P49841). Description: Inhibition of Human GSK-3 beta Activity Measured in Biochemical System Using Microfluidics - 2063-05_Inhibitor_Dose_DryPowder_Activity_Set2. [Related pubchem assays (depositor defined):AID2709].
Chain of Glycogen synthase kinase-3 beta (P49841 whole entry): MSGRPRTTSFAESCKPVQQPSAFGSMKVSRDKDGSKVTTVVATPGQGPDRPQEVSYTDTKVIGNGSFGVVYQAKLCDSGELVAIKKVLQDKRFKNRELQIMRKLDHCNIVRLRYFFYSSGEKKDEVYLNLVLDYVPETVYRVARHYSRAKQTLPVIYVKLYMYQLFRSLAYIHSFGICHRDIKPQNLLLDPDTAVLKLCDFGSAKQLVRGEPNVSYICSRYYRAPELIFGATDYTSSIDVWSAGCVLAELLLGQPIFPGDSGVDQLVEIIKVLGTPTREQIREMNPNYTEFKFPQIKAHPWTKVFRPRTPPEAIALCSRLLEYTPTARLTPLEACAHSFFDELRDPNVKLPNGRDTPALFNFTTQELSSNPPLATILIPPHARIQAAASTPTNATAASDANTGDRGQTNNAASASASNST
Experiment [4] has as its target Glycogen synthase kinase-3 alpha (Homo sapiens, UniProt P49840). Description: Inhibition of Human GSK-3 alpha Activity Measured in Biochemical System Using Microfluidics - 2063-06_Inhibitor_Dose_DryPowder_Activity_Set2. [Related pubchem assays (depositor defined):AID2709].
A short description of experiment [5]: NIH-3T3 fibroblast cytotoxicity, dose response, cytotoxicity control, cell-based, fluorescence, Alamar Blue, secondary assay (AID 2327).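 Also: NIH-3T3 mouse fibroblasts cultured with fluconazole at 8 µg/mL.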 Format: functional.
Experiment [6] deals with Candida albicans. Put plainly: growth inhibition of resistant C. albicans, dose response, CaCi-8, fluconazole, Alamar Blue, dry powder (AID 488807). Format: functional, organism-based.
Experiment [7] has as its system Candida albicans. Put plainly: fluconazole resistance reversal in C. albicans, dose response, CaCi-2 strain, Alamar Blue, dry powder, set 4 (AID 488943). Format: functional, organism-based. In general terms: The colour change of resazurin is a common sign of viable cells or microbes.
The test system of experiment [8] is Candida albicans. Put plainly: C. albicans growth inhibition with fluconazole, dose response, antifungal resistance reversal project, CaCi-2 strain, Alamar Blue, dry powder, set 2 (AID 488930). Format: functional, organism-based.
The nature of experiment [9]: C. albicans growth with fluconazole, confirmation, fluorescence, retest (AID 2467). Format: functional, cell-based.
Experiment [10] concerns Candida albicans. Put plainly: single-agent growth inhibition of C. albicans, dose response, counter-screen for antifungal drug resistance project, C. albicans CaCi-2, dry powder (AID 488802). Format: functional, organism-based.
Experiment [11] has as its target Serine/threonine-protein phosphatase (Candida dubliniensis (strain CD36 / CBS 7987 / NCPF 3949 / NRRLY-17841) (Yeast), UniProt B9W6M3). Put plainly: calcineurin pathway inhibitors in yeast reporter, dose response, S. cerevisiae, CDRE-lacZ, luminescence, secondary (AID 2388).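 Also: yeast reporter cells carrying a calcineurin-responsive lacZ construct stimulated with calcium chloride; luminescent beta-galactosidase reporter signal in whole cells rather than isolated phosphatase activity; potency for inhibition where a drop in reporter signal means calcineurin blockade.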 Format: functional, cell-based.
A short description of experiment [12]: inhibitors of intracellular T. cruzi replication, confirmation, NIH3T3 host cells, beta-gal luminescence (AID 2044).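 Also: intracellular parasites grown in NIH/3T3 mouse fibroblasts as host cells; luminescent beta-galactosidase reporter signal from transgenic T. cruzi replicating inside host cells; inhibitors lower the luminescence signal.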 Format: functional, cell-based.
The subject of a further experiment is NIH3T3. Description: cytotoxicity in NIH-3T3 fibroblasts, dose response, cytotoxicity control for antifungal drug resistance project, cell-based, Alamar Blue, fluconazole, dry powder (AID 488809). Format: functional. Particulars: Mus musculus.
Experiment [13] addresses ATP-dependent molecular chaperone HSP82 (Candida albicans (strain WO-1) (Yeast), UniProt C4YTQ8). Put plainly: loss of DOC-induced GRE-beta-galactosidase reporter signal, dose response, Hsp90 inhibitor project, S. cerevisiae, luminescence (AID 2400).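 Also: beta-galactosidase luminescence from glucocorticoid response element reporter as proxy for Hsp90 function; inhibitor potency where signal loss means Hsp90 inhibition.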 Format: functional, cell-based.
The test system of another experiment is HEK293. Description: inhibitors of LMP1-driven NF-kB reporter, dose response, cell-based, HEK293, luciferase, cherry-pick (AID 588343). Format: functional. Particulars: Homo sapiens.
Experiment [14] in a line: cytotoxicity toward NIH3T3 fibroblasts, dose response, counter-screen, cell-based, ATP luminescence, mouse fibroblasts (AID 2010).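 Also: cells exposed to compound for about 90 hours before reading.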 Format: functional.
A further experiment deals with Protein Wnt-3a (Mus musculus, UniProt P27467). Put plainly: Wnt3a-driven reporter signaling inhibition, dose response, selectivity assay for Gli-SUFU antagonist project, Wnt-LIGHT cells, luminescence (AID 651570).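 Also: Wnt-LIGHT reporter cells stimulated with conditioned medium from Wnt3a-producing cells.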 Format: functional. Particulars: read-out: IC50_Mean.
Chain of Protein Wnt-3a (P27467 whole entry): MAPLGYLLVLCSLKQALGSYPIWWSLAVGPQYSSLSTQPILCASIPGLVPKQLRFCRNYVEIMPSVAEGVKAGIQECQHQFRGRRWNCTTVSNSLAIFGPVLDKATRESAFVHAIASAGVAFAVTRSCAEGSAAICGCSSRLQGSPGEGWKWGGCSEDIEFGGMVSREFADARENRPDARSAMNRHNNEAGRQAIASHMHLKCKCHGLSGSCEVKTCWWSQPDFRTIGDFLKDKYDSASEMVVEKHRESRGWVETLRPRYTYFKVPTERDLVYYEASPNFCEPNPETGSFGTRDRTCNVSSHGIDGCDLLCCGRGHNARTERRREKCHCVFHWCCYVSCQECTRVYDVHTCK
In experiment [15] the test system is Candida albicans. Put plainly: growth inhibition of azole-resistant C. albicans, dose response, CaCi-8 strain, Alamar Blue, dry powder, set 2 (AID 488909). Format: functional, organism-based.
Another experiment concerns the target DNA topoisomerase (Yersinia pestis, UniProt A0A2S9PM60). Description: Y. pestis Topo-I inhibitors, cleavage product readout, dose response, biochemical, cherry-pick (AID 588525).

Chain of Glycogen synthase kinase-3 alpha (P49840 whole entry): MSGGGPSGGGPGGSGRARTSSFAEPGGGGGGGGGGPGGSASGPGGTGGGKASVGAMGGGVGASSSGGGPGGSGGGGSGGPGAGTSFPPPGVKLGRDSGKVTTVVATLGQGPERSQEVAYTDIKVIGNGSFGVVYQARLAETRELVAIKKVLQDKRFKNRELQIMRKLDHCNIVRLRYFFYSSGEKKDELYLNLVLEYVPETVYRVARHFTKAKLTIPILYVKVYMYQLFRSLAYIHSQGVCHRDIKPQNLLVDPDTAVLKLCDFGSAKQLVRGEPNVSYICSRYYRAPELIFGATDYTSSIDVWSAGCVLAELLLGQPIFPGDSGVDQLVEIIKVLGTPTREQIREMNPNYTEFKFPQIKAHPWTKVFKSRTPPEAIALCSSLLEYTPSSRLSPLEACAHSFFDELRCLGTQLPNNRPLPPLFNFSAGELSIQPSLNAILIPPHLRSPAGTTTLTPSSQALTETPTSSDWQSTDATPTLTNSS
Chain of Serine/threonine-protein phosphatase (B9W6M3 whole entry): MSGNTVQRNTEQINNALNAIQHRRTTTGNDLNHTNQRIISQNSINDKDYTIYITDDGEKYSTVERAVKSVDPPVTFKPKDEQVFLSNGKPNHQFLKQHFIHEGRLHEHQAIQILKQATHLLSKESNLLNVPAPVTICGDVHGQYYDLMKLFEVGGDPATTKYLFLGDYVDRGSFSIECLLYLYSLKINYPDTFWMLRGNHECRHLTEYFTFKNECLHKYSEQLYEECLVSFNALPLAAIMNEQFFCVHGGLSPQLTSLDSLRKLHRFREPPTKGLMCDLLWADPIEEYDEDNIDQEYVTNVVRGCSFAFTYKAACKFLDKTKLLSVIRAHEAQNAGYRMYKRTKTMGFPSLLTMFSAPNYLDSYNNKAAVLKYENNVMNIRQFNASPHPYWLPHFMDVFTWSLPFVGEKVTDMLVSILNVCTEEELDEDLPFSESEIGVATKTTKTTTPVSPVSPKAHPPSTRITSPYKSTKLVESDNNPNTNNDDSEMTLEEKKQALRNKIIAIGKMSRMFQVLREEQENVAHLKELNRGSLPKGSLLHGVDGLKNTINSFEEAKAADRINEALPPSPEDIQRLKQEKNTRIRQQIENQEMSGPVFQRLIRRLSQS
Chain of DNA topoisomerase (A0A2S9PM60 whole entry): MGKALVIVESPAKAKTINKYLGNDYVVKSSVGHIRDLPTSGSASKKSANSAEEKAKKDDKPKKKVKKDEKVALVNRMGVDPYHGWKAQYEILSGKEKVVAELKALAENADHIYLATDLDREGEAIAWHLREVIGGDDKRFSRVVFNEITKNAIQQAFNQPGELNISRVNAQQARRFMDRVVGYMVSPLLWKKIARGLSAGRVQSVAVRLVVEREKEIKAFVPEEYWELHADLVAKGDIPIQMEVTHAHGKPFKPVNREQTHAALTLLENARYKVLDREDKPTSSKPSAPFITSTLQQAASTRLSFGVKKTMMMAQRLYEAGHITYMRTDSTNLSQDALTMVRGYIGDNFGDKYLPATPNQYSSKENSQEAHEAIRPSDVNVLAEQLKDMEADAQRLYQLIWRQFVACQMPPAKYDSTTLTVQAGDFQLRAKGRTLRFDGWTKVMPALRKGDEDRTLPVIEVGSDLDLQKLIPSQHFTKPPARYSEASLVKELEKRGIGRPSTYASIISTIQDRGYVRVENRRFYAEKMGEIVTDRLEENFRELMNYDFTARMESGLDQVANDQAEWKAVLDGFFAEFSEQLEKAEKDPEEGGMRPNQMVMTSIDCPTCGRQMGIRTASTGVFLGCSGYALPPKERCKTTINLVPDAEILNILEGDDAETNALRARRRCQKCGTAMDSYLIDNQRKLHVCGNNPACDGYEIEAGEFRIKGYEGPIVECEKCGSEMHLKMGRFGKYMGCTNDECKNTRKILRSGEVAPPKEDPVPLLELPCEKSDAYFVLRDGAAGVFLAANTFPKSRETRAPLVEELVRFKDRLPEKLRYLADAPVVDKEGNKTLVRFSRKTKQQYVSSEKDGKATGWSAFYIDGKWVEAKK
Chain of ATP-dependent molecular chaperone HSP82 (C4YTQ8 whole entry): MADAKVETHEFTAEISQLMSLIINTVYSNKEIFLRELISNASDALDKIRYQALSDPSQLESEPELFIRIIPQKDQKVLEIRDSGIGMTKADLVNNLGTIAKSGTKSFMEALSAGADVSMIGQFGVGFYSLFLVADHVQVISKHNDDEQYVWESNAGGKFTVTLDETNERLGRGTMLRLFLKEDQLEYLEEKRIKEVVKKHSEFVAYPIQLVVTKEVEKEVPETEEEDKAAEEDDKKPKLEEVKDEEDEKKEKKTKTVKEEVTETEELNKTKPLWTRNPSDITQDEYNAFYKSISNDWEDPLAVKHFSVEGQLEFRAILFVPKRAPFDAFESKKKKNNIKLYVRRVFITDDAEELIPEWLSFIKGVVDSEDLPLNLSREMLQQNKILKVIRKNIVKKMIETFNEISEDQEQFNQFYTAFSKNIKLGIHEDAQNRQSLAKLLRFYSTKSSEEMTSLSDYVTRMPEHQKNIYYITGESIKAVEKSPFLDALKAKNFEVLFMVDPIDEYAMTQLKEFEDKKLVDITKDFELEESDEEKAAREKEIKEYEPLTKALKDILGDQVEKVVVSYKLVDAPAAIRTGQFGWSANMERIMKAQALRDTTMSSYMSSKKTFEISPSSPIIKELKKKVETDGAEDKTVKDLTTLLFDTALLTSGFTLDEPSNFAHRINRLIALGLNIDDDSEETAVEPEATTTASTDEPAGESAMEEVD

Regarding `CN(C(=O)COC(=O)c1cn(-c2ccccc2)nc1-c1ccccc1)C1CCS(=O)(=O)C1` (stereo not given), the half-maximal activity concentration (AC50) was 0.679 µM (active) on CAAX prenyl protease 2 [1] and 25.1 µM (active) on CAAX prenyl protease 2 [2].
For the molecule `COC(=O)c1nnn(-c2nonc2N)c1CSc1nc2ccccc2s1`, the AC50 in experiment [3] is 1.31 µM (active); in experiment [4] it was 4.24 µM (active).
For the molecule `O=C(c1ccc(Cl)cc1)N1CCN(c2ccnc3cc(Cl)ccc23)CC1`, the EC50 in experiment [5] is > 150 µM (inactive); in [9] it was 0.742 µM (active); in [11] it was > 180 µM (inactive); in [12] it was 1.34 µM (active); in [13], > 150 µM (inactive); in experiment [14] it was > 60 µM (not active). In addition, the AC50 is 0.87 µM (active) in the experiment with Candida albicans [6]; 0.306 µM (active) with Candida albicans [7]; 0.362 µM (active) with Candida albicans [7] (Candida albicans); 0.522 µM (active) in the experiment with Candida albicans [8]; 3.73 µM (active) in the experiment with Candida albicans [10]; 22.9 µM (active) with NIH3T3. Besides, the AC50 with HEK293 is 16.4 µM (active); with Candida albicans [15], 3.46 µM (active). In addition, the IC50 on Protein Wnt-3a was 8.3 µM (active).
Consider `Cc1ccc(SCc2cc(O)nc(Nc3nc(C)c4ccc(C)cc4n3)n2)cc1`, for which the AC50 on DNA topoisomerase was 2.96 µM (active).

As a reminder, the AC50 is the concentration at which the activity in the assay is half-maximal. For orientation: EC50 means the concentration at which the effect is half-maximal.
